Here are results for 23 molecules from patent publication US10022376B2 (Pfizer Inc., priority 2014, dated 2018).

Where a name gives a salt, the structure may show the parent alone.

For one assay, the system named is rhIFNγ stimulated STAT-3 phosphorylation in the A549 human epithelial cell line. Kind of assay: A549 Cell Assay: Inhibition of pSTAT3. It is filed as cell-based. The conditions noted are these: A549 cells. On the procedure: A549 Cell Assay: Inhibition of pSTAT3
An assay measuring the efficacy of JAK inhibitors on the functional response of recombinant human interferon γ (rhIFNγ) stimulated STAT-3 phosphorylation in the A549 human epithelial cell line.
A549 cells (ATCC #CCL-185), were plated at 30,000 cells/well in 96 well flat bottomed tissue culture plates (BD#353072) in 200 μL of growth medium (DMEM, Pfizer media prep, with 10% Fetal Bovine Serum, Sigma #F4135, 2 mM L-Glutamine, Pfizer media prep, 100 U/mL penicillin, Pfizer media prep, and 200 μg/ml streptomycin, Pfizer media prep), and cultured at 37° C., 5% CO2 incubator for 18 hours. Growth medium was removed by vacuum aspiration (V&P Scientific #vp187 bp-60), and 90 μL of pre-warmed assay medium (DMEM with 0.2% BSA, Miltenyi #130-091-376) was added to each well and incubated for 15 minutes at 37° C. 10 μL of vehicle control or test compound (final concentration range of 0.3 nM to 10 μM with 0.1% DMSO) was added to the cells. Plates were incubated at 37° C. for 1 hour. After compound incubation, 10 μL of 220 ng/mL recombinant human IFNγ (R&D Systems #285-IF, final rhIFNγ concentration of 20 ng/mL) was added to the cells and plates were incubated for 30 minutes at 37° C. Wells containing A549 cells, medium with 0.1% DMSO and no rhIFNγ were used as background controls. After rhIFNγ stimulation, media was aspirated from each well and 35 μL/well of iced-cold MSD lysis buffer containing protease and phosphatase inhibitors from Phospho-STAT3 Tyr705 assay kit (Meso-Scale Discovery #K150DID) was added to each well. Plates were incubated at 4° C. with shaking for 30 minutes. Cell lysates were assayed following the MSD Phospho-STAT3 Tyr705 assay kit protocol to detect pSTAT3.
Data were collected and transformed into percent inhibition and calculated using the following formula: […]
The term IC50 denotes the point on the concentration scale where inhibition reaches its midpoint. As for `CCc1cc(O)cc(C)c1-c1cc2[nH]ncc2c(NCc2ccccc2N(C)S(C)(=O)=O)n1` [Example 156], the 50% inhibitory concentration (IC50) came out at 72.4 nM.

Staying with this assay, now noted: Homo sapiens; A549 cells.
`CN(c1ccccc1CNc1nc(-c2cc(F)c(O)cc2CC(F)(F)F)cc2[nH]nc(C(N)=O)c12)S(=O)(=O)c1ccc(N2CCOCC2)nc1` [Example 65, 6-[5-fluoro-4-hydroxy-2-(2,2,2-trifluoroethyl)phenyl]-4-{[2-(methyl{[6-(morpholin-4-yl)pyridin-3-yl]sulfonyl}amino)benzyl]amino}-1H-pyrazolo[4,3-c]pyridine-3-carboxamide] gave an IC50 of 161 nM.

As to `CNC(=O)c1n[nH]c2nc(-c3cc(F)c(O)cc3CC(F)(F)F)nc(NCc3cc(F)ccc3N(C)S(C)(=O)=O)c12` [Example 104, 4-((5-fluoro-2-(N-methylmethylsulfonamido)benzyl)amino)-6-(5-fluoro-4-hydroxy-2-(2,2,2-trifluoroethyl)phenyl)-N-methyl-1H-pyrazolo[3,4-d]pyrimidine-3-carboxamide], the 50% inhibitory concentration (IC50) turned out to be 292 nM.

As to `CCc1cc(O)c(F)cc1-c1cc2[nH]nc(C(=O)NC)c2c(NCc2cc(F)ccc2N(C)S(C)(=O)=O)n1` [Example 7, 6-(2-ethyl-5-fluoro-4-hydroxyphenyl)-4-({5-fluoro-2-[methyl(methylsulfonyl)amino]benzyl}amino)-N-methyl-1H-pyrazolo[4,3-c]pyridine-3-carboxamide], the IC50 amounted to 5.7 nM.

In turn, `Cc1ccc(S(=O)(=O)N(C)c2ccccc2CNc2nc(-c3cc(F)c(O)cc3CC(F)(F)F)cc3[nH]nc(C(N)=O)c23)cn1` [Example 70, 6-[5-fluoro-4-hydroxy-2-(2,2,2-trifluoroethyl)phenyl]-4-[(2-{methyl[(6-methylpyridin-3-yl)sulfonyl]amino}benzyl)amino]-1H-pyrazolo[4,3-c]pyridine-3-carboxamide] registered a concentration for half-maximal inhibition (IC50) of 46.2 nM.

The molecule `CNC(=O)c1n[nH]c2cc(-c3cc(F)c(O)cc3CC(F)(F)F)nc(NCc3nccnc3N(C)S(C)(=O)=O)c12` [Example 51, 6-[5-fluoro-4-hydroxy-2-(2,2,2-trifluoroethyl)phenyl]-N-methyl-4-[({3-[methyl(methylsulfonyl)amino]pyrazin-2-yl}methyl)amino]-1H-pyrazolo[4,3-c]pyridine-3-carboxamide] yielded an IC50 of 182 nM.

The molecule `Oc1cc(CC(F)(F)F)c(-c2nc(NCCC3CC3)c3cn[nH]c3n2)cc1F` [Example 152, 4-{4-[(2-cyclopropylethyl)amino]-1H-pyrazolo[3,4-d]pyrimidin-6-yl}-2-fluoro-5-(2,2,2-trifluoroethyl)phenol] showed an IC50 of 133 nM.

With `CN(c1ccccc1CNc1nc(-c2cc(F)c(O)cc2C2CC2)cc2[nH]nc(C(N)=O)c12)S(C)(=O)=O` [Example 47, 6-(2-cyclopropyl-5-fluoro-4-hydroxyphenyl)-4-({2-[methyl(methylsulfonyl)amino]benzyl}amino)-1H-pyrazolo[4,3-c]pyridine-3-carboxamide], the IC50 was found to be 282 nM.

Consider `CN(c1ncccc1CNc1nc(-c2cc(F)c(O)cc2CC(F)(F)F)cc2[nH]nc(C(N)=O)c12)S(C)(=O)=O` [Example 62, 6-[5-fluoro-4-hydroxy-2-(2,2,2-trifluoroethyl)phenyl]-4-[({2-[methyl(methylsulfonyl)amino]pyridin-3-yl}methyl)amino]-1H-pyrazolo[4,3-c]pyridine-3-carboxamide], for which half-maximal inhibition (IC50) required 71.8 nM.

In turn, `CN(c1ccccc1CNc1nc(-c2cc(F)c(O)cc2CC(F)(F)F)cc2[nH]nc(C(N)=O)c12)S(=O)(=O)CCCN1CCOCC1` [Example 66, 6-[5-fluoro-4-hydroxy-2-(2,2,2-trifluoroethyl)phenyl]-4-{[2-(methyl{[3-(morpholin-4-yl)propyl]sulfonyl}amino)benzyl]amino}-1H-pyrazolo[4,3-c]pyridine-3-carboxamide] came in with a 50% inhibitory concentration (IC50) of 221 nM.

`CCS(=O)(=O)N(C)c1ccccc1CNc1nc(-c2cc(F)c(O)cc2CC(F)(F)F)cc2[nH]nc(C(N)=O)c12` [Example 85, 6-(5-fluoro-4-hydroxy-2-(2,2,2-trifluoroethyl)phenyl)-4-((2-(N-methylethylsulfonamido)benzyl)amino)-1H-pyrazolo[4,3-c]pyridine-3-carboxamide] gave an IC50 of 12.9 nM.

Turning to `CNC(=O)c1n[nH]c2nc(-c3cc(F)c(O)cc3CC(F)(F)F)nc(NCc3ccccc3N(C)S(=O)(=O)NC)c12` [Example 110, 6-(5-Fluoro-4-hydroxy-2-(2,2,2-trifluoroethyl)phenyl)-N-methyl-4-((2-(methyl(N-methylsulfamoyl)amino)benzyl)amino)-1H-pyrazolo[3,4-d]pyrimidine-3-carboxamide], the IC50 was > 10000 nM.

`CNC(=O)c1n[nH]c2cc(-c3cc(F)c(O)cc3C3CC3)nc(NCc3cccnc3N(C)S(C)(=O)=O)c12` [Example 49, 6-(2-cyclopropyl-5-fluoro-4-hydroxyphenyl)-N-methyl-4-[({2-[methyl(methylsulfonyl)amino]pyridin-3-yl}methyl)amino]-1H-pyrazolo[4,3-c]pyridine-3-carboxamide]: 385 nM corresponded to half-maximal inhibition (IC50).

`CN(c1ncc(F)cc1CNc1nc(-c2cc(F)c(O)cc2CC(F)(F)F)cc2[nH]nc(C(N)=O)c12)S(C)(=O)=O` [Example 78, 6-[5-Fluoro-4-hydroxy-2-(2,2,2-trifluoroethyl)phenyl]-4-[({5-fluoro-2-[methyl(methyl-sulfonyl)amino]pyridin-3-yl}methyl)amino]-1H-pyrazolo[4,3-c]pyridine-3-carboxamide] showed a 50% inhibitory concentration (IC50) of 27.2 nM.

The molecule `Oc1cc(CC(F)(F)F)c(-c2nc(NCC3CC3)c3cn[nH]c3n2)cc1F` [Example 151, 4-{4-[(cyclopropylmethyl)amino]-1H-pyrazolo[3,4-d]pyrimidin-6-yl}-2-fluoro-5-(2,2,2-trifluoroethyl)phenol] yielded an IC50 of 133 nM.

Molecule `CNC(=O)c1n[nH]c2cc(-c3cc(F)c(O)cc3CC(F)(F)F)nc(NCc3cc(C)ccc3N(C)S(C)(=O)=O)c12` [Example 11, 6-[5-fluoro-4-hydroxy-2-(2,2,2-trifluoroethyl)phenyl]-N-methyl-4-({5-methyl-2-[methyl(methylsulfonyl)amino]benzyl}amino)-1H-pyrazolo[4,3-c]pyridine-3-carboxamide] returned an IC50 of 72.4 nM.

`CCN(c1ncc(C)cc1CNc1nc(-c2cc(F)c(O)cc2CC(F)(F)F)cc2[nH]nc(C(N)=O)c12)S(C)(=O)=O` [Example 87, 4-[({2-[ethyl(methylsulfonyl)amino]-5-methylpyridin-3-yl}methyl)amino]-6-[5-fluoro-4-hydroxy-2-(2,2,2-trifluoroethyl)phenyl]-1H-pyrazolo[4,3-c]pyridine-3-carboxamide] returned an IC50 of 213 nM.

For `CNC(=O)c1n[nH]c2cc(-c3cc(F)c(O)cc3CC(F)(F)F)nc(NCc3ncccc3N(C)S(C)(=O)=O)c12` [Example 55, 6-[5-Fluoro-4-hydroxy-2-(2,2,2-trifluoroethyl)phenyl]-N-methyl-4-[({3-[methyl(methylsulfonyl)amino]pyridin-2-yl}methyl)amino]-1H-pyrazolo[4,3-c]pyridine-3-carboxamide], the IC50 is 156 nM.

With `CCN(c1ccccc1CNc1nc(-c2cc(F)c(O)cc2CC(F)(F)F)nc2[nH]nc(C(=O)NC)c12)S(C)(=O)=O` [Example 103, 4-((2-(N-ethylmethylsulfonamido)benzyl)amino)-6-(5-fluoro-4-hydroxy-2-(2,2,2-trifluoroethyl)-phenyl)-N-methyl-1H-pyrazolo[3,4-d]pyrimidine-3-carboxamide], the IC50 came to 235 nM.

As for `CCc1cc(O)c(F)cc1-c1cc2[nH]nc(-c3ncc[nH]3)c2c(NCc2ccccc2N(C)S(C)(=O)=O)n1` [Example 157, N-[2-({[6-(2-Ethyl-5-fluoro-4-hydroxyphenyl)-3-(1H-imidazol-2-yl)-1H-pyrazolo[4,3-c]pyridin-4-yl]amino}methyl)phenyl]-N-methylmethanesulfonamide], half-maximal inhibition (IC50) was put at 26.2 nM.

For `CCc1cc(O)c(F)cc1-c1cc2[nH]ncc2c(N(CCc2ccc(OC)c(OC)c2)Cc2ccccc2N(C)S(C)(=O)=O)n1` [Example 129, N-[2-({[2-(3,4-dimethoxyphenyl)ethyl][6-(2-ethyl-5-fluoro-4-hydroxyphenyl)-1H-pyrazolo[4,3-c]pyridin-4-yl]amino}methyl)phenyl]-N-methylmethanesulfonamide hydrochloride], the IC50 stood at 62.4 nM.

Molecule `CCN(c1ncc(F)cc1CNc1nc(-c2cc(F)c(O)cc2CC(F)(F)F)cc2[nH]nc(C(N)=O)c12)S(C)(=O)=O` [Example 79, 4-[({2-[ethyl(methylsulfonyl)amino]-5-fluoropyridin-3-yl}methyl)amino]-6-[5-fluoro-4-hydroxy-2-(2,2,2-trifluoroethyl)phenyl]-1H-pyrazolo[4,3-c]pyridine-3-carboxamide] registered a half-maximal inhibitory concentration (IC50) of 30.7 nM.

`CCc1cc(O)c(F)cc1-c1cc2[nH]ncc2c(NCc2ccccc2N(CC)S(=O)(=O)CC)n1` [Example 136, N-ethyl-N-[2-({[6-(2-ethyl-5-fluoro-4-hydroxyphenyl)-1H-pyrazolo[4,3-c]pyridin-4-yl]amino}-methyl)phenyl]ethanesulfonamide hydrochloride]: 13.3 nM corresponded to half-maximal inhibition (IC50).
